Assay results reported in ChEMBL document CHEMBL1201862, “PubChem BioAssay data set” (2004).
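Dose response: 5 concentrations. Exposure: 48 h. Format: 96-well plates. Endpoint: linear interpolation; highest concentration if not reached. GI50 is the concentration that inhibits growth by half.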 Active and inactive are the calls of the source. Rule as the data show it: active = GI50 up to about 1.1 µM and inactive = higher.

What was measured:
Assay in all cases: growth of human tumour cells (NCI), 48 h
786-0 = system: 786-0
A498 = system: A498
A549 = system: A549
ACHN = system: ACHN
BT-549 = system: BT-549
CAKI-1 = system: CAKI-1
CCRF-CEM = system: CCRF-CEM
DU-145 = system: DU-145
EKVX = system: EKVX
HCC 2998 = system: HCC 2998
HCT-116 = system: HCT-116
HCT-15 = system: HCT-15
HL-60 = system: HL-60
HOP-62 = system: HOP-62
HOP-92 = system: HOP-92
HT-29 = system: HT-29
Hs-578T = system: Hs-578T
IGROV-1 = system: IGROV-1
K562 = system: K562
KM12 = system: KM12
LOX IMVI = system: LOX IMVI
M14 = system: M14
MCF7 = system: MCF7
MDA-MB-231 = system: MDA-MB-231
MDA-MB-435 = system: MDA-MB-435
MOLT-4 = system: MOLT-4
Malme-3M = system: Malme-3M
NCI-H226 = system: NCI-H226
NCI-H23 = system: NCI-H23
NCI-H460 = system: NCI-H460
NCI-H522 = system: NCI-H522
NCI/ADR-RES = system: NCI/ADR-RES
OVCAR-3 = system: OVCAR-3
OVCAR-4 = system: OVCAR-4
OVCAR-5 = system: OVCAR-5
OVCAR-8 = system: OVCAR-8
PC-3 = system: PC-3
RPMI-8226 = system: RPMI-8226
RXF 393 = system: RXF 393
SF-268 = system: SF-268
SF-295 = system: SF-295
SF-539 = system: SF-539
SK-MEL-28 = system: SK-MEL-28
SK-MEL-2 = system: SK-MEL-2
SK-MEL-5 = system: SK-MEL-5
SN12C = system: SN12C
SR = system: SR
SW-620 = system: SW-620
TK-10 = system: TK-10
U-251 = system: U-251
UACC-257 = system: UACC-257
UACC-62 = system: UACC-62
UO-31 = system: UO-31
COLO 205 = system: COLO 205
MDA-N = system: MDA-N
SK-OV-3 = system: SK-OV-3
SNB-19 = system: SNB-19

In the case of `Cc1cn2c(/C=N/NC(=N)N)c(-c3cccc([N+](=O)[O-])c3)nc2s1`, the GI50 (786-0) is reported as 1.47 µM (inactive), the GI50 (A498) is reported as 1.48 µM (inactive) and the GI50 (A549) is reported as 1.95 µM (inactive). The GI50 (ACHN) was 1.67 µM (inactive), the GI50 (BT-549) was 1.75 µM (inactive) and the GI50 (CAKI-1) was 2.42 µM (inactive). For the same compound, the GI50 (CCRF-CEM) was 0.532 µM (active), the GI50 (DU-145) was 1.74 µM (inactive) and the GI50 (EKVX) was 2.38 µM (inactive). The GI50 (HCC 2998) was 0.839 µM (active), the GI50 (HCT-116) was 0.366 µM (active) and the GI50 (HCT-15) was 4.41 µM. The GI50 (HL-60) was 1.92 µM (inactive), the GI50 (HOP-62) was 1.38 µM (inactive) and the GI50 (HOP-92) was 1.64 µM (inactive). For the same compound, the GI50 (HT-29) was 0.514 µM (active), the GI50 (Hs-578T) was 2.38 µM (inactive) and the GI50 (IGROV-1) was 5.56 µM (inactive). For the same compound, the GI50 (K562) was 0.215 µM (active), the GI50 (KM12) was 0.647 µM (active) and the GI50 (LOX IMVI) was 0.849 µM (active). For the same compound, the GI50 (M14) was 1.85 µM (inactive), the GI50 (MCF7) was 0.625 µM (active) and the GI50 (MDA-MB-231) was 1.41 µM (inactive). The GI50 (MDA-MB-435) was 1.82 µM (inactive), the GI50 (MOLT-4) was 1.77 µM (inactive) and the GI50 (Malme-3M) was 1.96 µM (inactive). For the same compound, the GI50 (NCI-H226) was 1.91 µM (inactive), the GI50 (NCI-H23) was 2.39 µM (inactive) and the GI50 (NCI-H460) was 2.01 µM (inactive). For the same compound, the GI50 (NCI-H522) was 2.08 µM (inactive), the GI50 (NCI/ADR-RES) was 28.4 µM (inactive) and the GI50 (OVCAR-3) was 1.26 µM (inactive). For the same compound, the GI50 (OVCAR-4) was 0.153 µM (active), the GI50 (OVCAR-5) was 2.07 µM (inactive) and the GI50 (OVCAR-8) was 1.78 µM (inactive). For the same compound, the GI50 (PC-3) was 1.74 µM (inactive), the GI50 (RPMI-8226) was 3.2 µM (inactive) and the GI50 (RXF 393) was 1.15 µM (inactive). The GI50 (SF-268) was 1.08 µM (active), the GI50 (SF-295) was 1.81 µM (inactive) and the GI50 (SF-539) was 1.98 µM (inactive). The GI50 (SK-MEL-28) was 1.29 µM (inactive), the GI50 (SK-MEL-2) was 1.96 µM (inactive) and the GI50 (SK-MEL-5) was 1.63 µM (inactive). The GI50 (SN12C) was 1.71 µM (inactive), the GI50 (SR) was 1.77 µM (inactive) and the GI50 (SW-620) was 0.661 µM (active). For the same compound, the GI50 (TK-10) was 2.21 µM (inactive), the GI50 (U-251) was 1.6 µM (inactive) and the GI50 (UACC-257) was 2.11 µM (inactive). The GI50 (UACC-62) was 1.69 µM (inactive) and the GI50 (UO-31) was 5.62 µM (inactive).

`O=[N+]([O-])c1ccc(C2c3c(O)nc(O)nc3Oc3nc(O)nc(O)c32)cc1` was tested, and the GI50 (786-0) was > 100 µM (inactive), the GI50 (A498) was > 100 µM (inactive) and the GI50 (A549) was > 100 µM (inactive). The GI50 (ACHN) was > 100 µM (inactive), the GI50 (BT-549) was > 100 µM (inactive) and the GI50 (CAKI-1) was > 100 µM (inactive). For the same compound, the GI50 (CCRF-CEM) was 13.8 µM (inactive), the GI50 (COLO 205) was > 100 µM (inactive) and the GI50 (DU-145) was > 100 µM (inactive). The GI50 (EKVX) was > 100 µM (inactive), the GI50 (HCT-116) was > 100 µM (inactive) and the GI50 (HCT-15) was greater than 100 µM. The GI50 (HL-60) was 33.7 µM (inactive), the GI50 (HOP-62) was > 100 µM (inactive) and the GI50 (HT-29) was > 100 µM (inactive). For the same compound, the GI50 (Hs-578T) was > 100 µM (inactive), the GI50 (IGROV-1) was > 100 µM (inactive) and the GI50 (KM12) was > 100 µM (inactive). The GI50 (M14) was > 100 µM (inactive), the GI50 (MDA-MB-231) was > 100 µM (inactive) and the GI50 (MDA-MB-435) was > 100 µM (inactive). For the same compound, the GI50 (MDA-N) was > 100 µM (inactive), the GI50 (NCI-H226) was > 100 µM (inactive) and the GI50 (NCI-H23) was > 100 µM (inactive). For the same compound, the GI50 (NCI-H460) was > 100 µM (inactive), the GI50 (NCI-H522) was 17.9 µM (inactive) and the GI50 (OVCAR-3) was > 100 µM (inactive). For the same compound, the GI50 (OVCAR-4) was > 100 µM (inactive), the GI50 (OVCAR-5) was > 100 µM (inactive) and the GI50 (OVCAR-8) was > 100 µM (inactive). For the same compound, the GI50 (PC-3) was > 100 µM (inactive), the GI50 (RPMI-8226) was 28.8 µM (inactive) and the GI50 (RXF 393) was 8.36 µM (inactive). For the same compound, the GI50 (SF-268) was > 100 µM (inactive), the GI50 (SF-295) was > 100 µM (inactive) and the GI50 (SK-MEL-28) was > 100 µM (inactive). The GI50 (SK-MEL-2) was > 100 µM (inactive), the GI50 (SK-MEL-5) was > 100 µM (inactive) and the GI50 (SK-OV-3) was > 100 µM (inactive). The GI50 (SN12C) was > 100 µM (inactive), the GI50 (SNB-19) was > 100 µM (inactive) and the GI50 (SW-620) was > 100 µM (inactive). For the same compound, the GI50 (TK-10) was > 100 µM (inactive), the GI50 (U-251) was > 100 µM (inactive) and the GI50 (UACC-257) was > 100 µM (inactive). The GI50 (UACC-62) was 95.3 µM (inactive) and the GI50 (UO-31) was > 100 µM (inactive).
